What was measured:
[1] = molecular target: T1, Ros1 (Homo sapiens, UniProt P08922); experiment: Kinase inhibitory activity (33P-ATP filter binding, Reaction Biology Corp.); assay type: biochemical; settings: read-out: The half maximal inhibitory concentration IC50 on the kinases, Ros1
T1 construct: purchased Reaction Biology Corp. (contract assay)
Procedure, shortened: (§1)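 Radioactivity was read by filter binding. Activity was expressed as remaining activity relative to DMSO control, and IC50 came from dose-effect curve fitting.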

[2] = molecular target: T2, TrkA (Homo sapiens, UniProt P04629); experiment: as above; assay type: biochemical; settings: read-out: The half maximal inhibitory concentration IC50 on the kinases, TrkA
T2 construct: purchased Reaction Biology Corp. (contract assay)
T2 sequence (P04629 33-796): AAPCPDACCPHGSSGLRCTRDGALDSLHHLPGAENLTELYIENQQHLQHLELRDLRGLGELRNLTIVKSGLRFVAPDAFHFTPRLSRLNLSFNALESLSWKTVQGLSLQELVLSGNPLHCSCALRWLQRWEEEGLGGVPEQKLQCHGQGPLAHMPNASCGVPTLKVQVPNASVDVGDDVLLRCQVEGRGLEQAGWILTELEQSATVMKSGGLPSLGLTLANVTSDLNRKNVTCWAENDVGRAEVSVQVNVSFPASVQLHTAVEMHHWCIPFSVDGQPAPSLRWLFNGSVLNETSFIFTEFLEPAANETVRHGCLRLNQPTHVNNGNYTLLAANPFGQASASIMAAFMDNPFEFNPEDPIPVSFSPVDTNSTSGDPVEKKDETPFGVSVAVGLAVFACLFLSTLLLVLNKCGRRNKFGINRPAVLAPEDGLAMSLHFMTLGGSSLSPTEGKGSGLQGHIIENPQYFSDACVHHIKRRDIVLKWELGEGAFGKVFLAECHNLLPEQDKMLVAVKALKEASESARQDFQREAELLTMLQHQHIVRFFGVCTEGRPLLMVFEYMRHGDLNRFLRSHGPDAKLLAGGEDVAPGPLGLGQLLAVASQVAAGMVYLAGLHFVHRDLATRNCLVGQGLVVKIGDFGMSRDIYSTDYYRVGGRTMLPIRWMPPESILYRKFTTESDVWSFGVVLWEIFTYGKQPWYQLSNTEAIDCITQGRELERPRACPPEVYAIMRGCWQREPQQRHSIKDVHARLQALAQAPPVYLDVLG
Procedure, shortened: as §1

[3] = molecular target: T3, TrkA-G595R (Homo sapiens, UniProt P04629, G595R); experiment: as above; assay type: biochemical; settings: read-out: The half maximal inhibitory concentration IC50 on the kinases, TrkA-G595R
T3 construct: purchased Reaction Biology Corp. (contract assay)
T3 sequence (P04629 33-796 G595R): as the sequence (P04629 33-796) above, with G563R counted along it
Procedure, shortened: as §1

[4] = molecular target: T4, Ba/F3 LMNA-NTRK1-G595R stably transfected cell line (Homo sapiens, UniProt P04629, G595R, cells depend on it); experiment: Cell proliferation inhibition (CellTiter-Glo); assay type: cell-based; settings: 72 hours, read-out: The half maximal inhibitory concentration IC50 against cells, Ba/F3 LMNA-NTRK1-G595R
T4 construct: fused on or other part: P02545 (Prelamin-A/C)
T4 sequence (P04629 whole entry G595R, the tested form may be a part): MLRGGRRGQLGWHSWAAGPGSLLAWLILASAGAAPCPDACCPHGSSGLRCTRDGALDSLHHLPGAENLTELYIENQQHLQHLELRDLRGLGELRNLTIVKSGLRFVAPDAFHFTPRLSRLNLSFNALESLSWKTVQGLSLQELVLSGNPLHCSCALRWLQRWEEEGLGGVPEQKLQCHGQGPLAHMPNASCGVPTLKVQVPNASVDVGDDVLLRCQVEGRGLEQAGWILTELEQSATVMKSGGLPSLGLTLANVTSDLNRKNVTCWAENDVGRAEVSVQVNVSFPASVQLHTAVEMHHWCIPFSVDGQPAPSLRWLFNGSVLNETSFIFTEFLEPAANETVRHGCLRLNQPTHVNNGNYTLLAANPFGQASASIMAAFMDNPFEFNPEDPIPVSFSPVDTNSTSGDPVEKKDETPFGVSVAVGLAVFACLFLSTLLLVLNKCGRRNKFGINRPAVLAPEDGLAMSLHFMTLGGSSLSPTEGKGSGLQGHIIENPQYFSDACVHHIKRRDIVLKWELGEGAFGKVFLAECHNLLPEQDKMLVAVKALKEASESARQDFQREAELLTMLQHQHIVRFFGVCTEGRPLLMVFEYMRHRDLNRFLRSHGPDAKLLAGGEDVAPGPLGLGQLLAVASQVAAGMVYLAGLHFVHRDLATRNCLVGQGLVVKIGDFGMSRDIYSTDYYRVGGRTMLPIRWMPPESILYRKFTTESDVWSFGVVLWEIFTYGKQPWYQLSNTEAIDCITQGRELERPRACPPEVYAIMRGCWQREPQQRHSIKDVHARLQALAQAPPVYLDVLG

[5] = molecular target: T5, Ba/F3 SLC34A2-ROS1-WT stably transfected cell line (Homo sapiens, UniProt P08922); experiment: Cell proliferation inhibition (CellTiter-Glo); assay type: cell-based; settings: 72 hours, read-out: The half maximal inhibitory concentration IC50 against cells, Ba/F3 SLC34A2-ROS1-WT
T5 construct: fused on or other part: O95436 (Sodium-dependent phosphate transport protein 2B)
T5 sequence (P08922 whole entry, stated change not applied, the tested form may be a part): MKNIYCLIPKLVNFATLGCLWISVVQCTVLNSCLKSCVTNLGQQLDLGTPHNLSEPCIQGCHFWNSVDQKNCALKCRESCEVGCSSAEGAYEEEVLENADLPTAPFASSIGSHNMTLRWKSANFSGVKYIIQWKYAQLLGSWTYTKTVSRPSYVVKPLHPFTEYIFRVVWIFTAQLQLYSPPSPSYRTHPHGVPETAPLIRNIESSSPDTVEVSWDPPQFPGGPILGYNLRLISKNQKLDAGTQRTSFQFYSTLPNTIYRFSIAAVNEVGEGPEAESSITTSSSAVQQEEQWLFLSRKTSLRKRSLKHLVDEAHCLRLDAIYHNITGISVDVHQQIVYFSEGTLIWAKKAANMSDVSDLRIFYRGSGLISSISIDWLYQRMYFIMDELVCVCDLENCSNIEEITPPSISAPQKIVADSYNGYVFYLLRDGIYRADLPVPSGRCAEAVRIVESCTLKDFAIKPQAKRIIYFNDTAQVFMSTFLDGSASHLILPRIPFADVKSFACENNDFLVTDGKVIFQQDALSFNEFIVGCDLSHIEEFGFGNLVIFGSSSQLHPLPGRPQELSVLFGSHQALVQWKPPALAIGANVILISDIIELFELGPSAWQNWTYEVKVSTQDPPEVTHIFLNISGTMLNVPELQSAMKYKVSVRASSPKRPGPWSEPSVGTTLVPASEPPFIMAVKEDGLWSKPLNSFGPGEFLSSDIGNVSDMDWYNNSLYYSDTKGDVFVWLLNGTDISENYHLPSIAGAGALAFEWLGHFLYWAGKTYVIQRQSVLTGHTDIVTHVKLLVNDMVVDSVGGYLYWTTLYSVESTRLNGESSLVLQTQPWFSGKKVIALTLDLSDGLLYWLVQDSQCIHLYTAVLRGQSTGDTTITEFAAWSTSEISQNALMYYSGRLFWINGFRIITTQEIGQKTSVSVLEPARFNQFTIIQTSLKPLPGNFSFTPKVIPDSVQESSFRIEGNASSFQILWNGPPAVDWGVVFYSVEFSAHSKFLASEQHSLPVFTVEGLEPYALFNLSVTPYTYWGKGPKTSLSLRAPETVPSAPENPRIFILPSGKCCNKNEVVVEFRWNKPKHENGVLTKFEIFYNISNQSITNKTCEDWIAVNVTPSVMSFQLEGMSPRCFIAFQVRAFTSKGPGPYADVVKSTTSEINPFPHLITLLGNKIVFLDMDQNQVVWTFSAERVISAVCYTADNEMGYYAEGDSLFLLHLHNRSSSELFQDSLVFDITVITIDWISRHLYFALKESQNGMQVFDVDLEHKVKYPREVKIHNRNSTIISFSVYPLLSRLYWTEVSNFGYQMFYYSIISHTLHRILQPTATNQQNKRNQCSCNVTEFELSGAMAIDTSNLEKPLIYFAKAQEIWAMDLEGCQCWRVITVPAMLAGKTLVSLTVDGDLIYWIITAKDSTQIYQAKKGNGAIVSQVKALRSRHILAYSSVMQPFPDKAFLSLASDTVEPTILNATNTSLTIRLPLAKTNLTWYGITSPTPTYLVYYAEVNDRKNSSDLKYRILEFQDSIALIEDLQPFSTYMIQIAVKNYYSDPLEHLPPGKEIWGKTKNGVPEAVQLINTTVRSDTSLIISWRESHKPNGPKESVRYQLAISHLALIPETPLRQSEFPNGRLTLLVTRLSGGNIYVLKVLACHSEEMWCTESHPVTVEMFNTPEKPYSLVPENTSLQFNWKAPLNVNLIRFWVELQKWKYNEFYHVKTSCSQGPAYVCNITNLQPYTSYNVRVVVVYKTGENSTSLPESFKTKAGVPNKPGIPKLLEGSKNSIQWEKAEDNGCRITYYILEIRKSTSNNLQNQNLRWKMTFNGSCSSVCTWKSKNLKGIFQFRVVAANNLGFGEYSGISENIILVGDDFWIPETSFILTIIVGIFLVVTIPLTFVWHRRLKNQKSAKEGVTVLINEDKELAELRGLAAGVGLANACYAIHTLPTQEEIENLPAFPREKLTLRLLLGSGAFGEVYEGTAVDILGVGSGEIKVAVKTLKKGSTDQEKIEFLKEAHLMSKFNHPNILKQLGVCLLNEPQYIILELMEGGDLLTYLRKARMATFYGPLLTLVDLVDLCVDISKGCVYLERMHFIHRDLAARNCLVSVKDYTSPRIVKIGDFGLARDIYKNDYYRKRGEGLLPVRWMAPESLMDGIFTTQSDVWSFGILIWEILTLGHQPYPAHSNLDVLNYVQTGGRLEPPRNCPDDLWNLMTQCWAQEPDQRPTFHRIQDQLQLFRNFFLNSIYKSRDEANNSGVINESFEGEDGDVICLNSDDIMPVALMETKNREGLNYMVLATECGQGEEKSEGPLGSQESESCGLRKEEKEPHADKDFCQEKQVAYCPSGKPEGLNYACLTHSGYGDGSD

[6] = In vivo cassette pharmacokinetic test in mice; design: species or system male CD-1 mice; settings: cassette, mice
Description: The dose of the compounds: […] PO dose of 3 mg/kg, and administration volume of 3 mL/kg.

[7] = tested on: human colon cancer cell line KM12 subcutaneous xenograft tumor; experiment: In vivo efficacy, subcutaneous xenograft tumor of human colon cancer KM12; design: species or system BALB/c mouse; settings: PO
Description: Experimental object: evaluation of the in vivo efficacy of test drugs such as WX002A on subcutaneous xenograft tumor of human colon cancer cell line KM12 cell in BALB/c mouse model.
(§2) Drug preparation: The compounds were all prepared into clear solutions with 5% DMSO+10% solutol+85% water as solvent for administration in the PO (intragastric) group.
(§3) Tumor measurement: the tumor diameters were measured with a vernier caliper twice a week. The calculation formula of tumor volume is: V=0.5×a×b^2, wherein a and b represent the long diameter and short diameter of the tumor, respectively. The anti-tumor efficacy of the compounds is evaluated by TGI (%). TGI (%) reflects tumor growth inhibition rate.
Statistical analysis: The statistical analysis was based on the relative tumor volume and tumor weight at the end of the experiment using SPSS software. One-way ANOVA was used to analyze the comparison between multiple groups. […] P<0.05 was considered to indicate significant difference.

[8] = tested on: human lung cancer LU-01-0414 subcutaneous xenograft tumor; experiment: In vivo efficacy, subcutaneous xenograft tumor of human lung cancer LU-01-0414; design: species or system BALB/c mouse; settings: LU-01-0414 xenograft, 14th day, PO
Description: Experimental object: evaluation of the in vivo efficacy of test drugs such as WX002A on subcutaneous xenograft tumor of human lung cancer LU-01-0414 in BALB/c mouse model.
as §2
as §3, with “compounds was” for “compounds is”
Statistical analysis: the statistical analysis was based on the relative tumor volume and tumor weight at the end of the experiment using SPSS software. One-way ANOVA was used to analyze the comparison between multiple groups. […] P<0.05 was considered to indicate significant difference.

O=C1N[C@@H]2COC[C@@H]2Oc2ncc(F)cc2[C@H]2CCON2c2ccn3ncc1c3n2 [WX008A]
IC50 [1]: 0.16 nM | IC50 [2]: 1.61 nM | IC50 [3]: 2.31 nM | GI50 [4]: 3.92 nM | GI50 [5]: 5.45 nM

O=C1NC2(CC2)COc2ncc(F)cc2[C@H]2CCON2c2ccn3ncc1c3n2 [WX002A]
IC50 [1]: 0.14 nM | IC50 [2]: 2.07 nM | IC50 [3]: 3.6 nM | GI50 [4]: 6.2 nM | GI50 [5]: 2.53 nM | Apparent clearance Cl ([6]; IV @ 1 mpk): 6.3 mL/kg/min | Apparent volume of distribution Vd ([6]; IV @ 1 mpk): 0.57 L/kg | Area under curve AUC0-inf ([6]; IV @ 1 mpk): 6.689 µM·h | Half life T1/2 ([6]; IV @ 1 mpk): 52.8 min | C0 ([6]; IV @ 1 mpk, plasma, read-out: Initial concentration C0): 3.71 µM | Bioavailability F % ([6]; PO @ 3 mpk vs IV @ 1 mpk): 76% | Area under curve AUC0-inf ([6]; PO @ 3 mpk): 19.769 µM·h | Time of peak concentration Tmax ([6]; PO @ 3 mpk): 15 min | drug concentration in cerebrospinal fluid at 0.5 hour CSF@0.5 h ([6]; PO @ 3 mpk, CSF, 0.5 h): 63 nmol/kg | drug concentration in cerebrospinal fluid at 2 hour CSF@2 h ([6]; PO @ 3 mpk, CSF, 2 h): 21 nmol/kg | drug concentration in brain at 0.5 h Brain@0.5 h ([6]; PO @ 3 mpk, brain, 0.5 h): 663 nmol/kg | drug concentration in brain at 2 h Brain@2 h ([6]; PO @ 3 mpk, brain, 2 h): 343 nmol/kg | Cmax ([6]; PO @ 3 mpk, read-out: Peak concentration Cmax): 4.74 µM | T/C ([7]; dose of 3 mg/kg): 33.18% | TGI ([7]; dose of 3 mg/kg): 71.23% | T/C ([7]; dose of 15 mg/kg): 15.63% | TGI ([7]; dose of 15 mg/kg): 88.61% | T/C ([8]; 3 mg/kg BID): 9.57% | TGI ([8]; 3 mg/kg BID): 118.02% | T/C ([8]; 15 mg/kg BID): 3.07% | TGI ([8]; 15 mg/kg BID): 126.88% | T/C ([8]; 30 mg/kg BID): 1.87% | TGI ([8]; 30 mg/kg BID): 128.36%
